Article PMC7368380 (Journal of the American Chemical Society, 2018)

Columns and labels:
[1] = MALDI-TOF MS-based hydrogen-deuterium exchange assay; type: physicochemical; conditions: H-D exchange, MALDI-TOF MS read-out (Fig. S10)
carboxypeptidase Y = biological target: T1, carboxypeptidase Y (Saccharomyces cerevisiae, UniProt P00729); assay: carboxypeptidase Y digestion; type: in vitro ADME; conditions: carboxypeptidase Y digestion for 18 h; analysis by MS (Fig. S11)
T1 sequence (P00729 112-532): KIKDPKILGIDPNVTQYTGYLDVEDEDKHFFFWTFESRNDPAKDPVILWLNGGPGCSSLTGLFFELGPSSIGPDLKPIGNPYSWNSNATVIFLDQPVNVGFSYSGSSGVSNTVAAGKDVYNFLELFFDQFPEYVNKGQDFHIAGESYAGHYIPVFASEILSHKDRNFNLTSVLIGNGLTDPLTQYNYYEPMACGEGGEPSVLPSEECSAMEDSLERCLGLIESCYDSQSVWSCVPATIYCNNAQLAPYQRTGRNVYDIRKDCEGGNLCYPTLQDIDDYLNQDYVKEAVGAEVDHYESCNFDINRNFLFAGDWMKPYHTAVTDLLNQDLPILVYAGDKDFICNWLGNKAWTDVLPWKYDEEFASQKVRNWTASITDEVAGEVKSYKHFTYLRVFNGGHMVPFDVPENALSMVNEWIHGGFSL

solubility = type: physicochemical; conditions: qualitative statement; prevented NMR
[2] = biological target: fluorescein-labeled, wild-type FusA leader peptide (Thermobifida fusca); assay: fluorescence polarisation

## fusilassin
[1]
  time to full deuteration: ~ 60 min
Carboxypeptidase Y
  outcome of carboxypeptidase Y digestion: vast majority of the fusilassin peptide remained intact
solubility
  solubility characteristics: poor

## FusE-D74A (natural protein)
[2]
  fold reduction of affinity against wild-type FusE: 8 fold

## FusE-L78A (natural protein)
[2]
  fold reduction of affinity against wild-type FusE: 10 fold

## FusE G31V variant (natural protein)
[2]
  fold reduction of leader peptide binding against wild-type FusE: 2 fold
